The values below come from article PMC10934500, “Exploring the Anti-Diabetic Potential of Quercetagitrin through Dual Inhibition of PTPN6 and PTPN9” (Nutrients, 2024).

In general, IC50 refers to the midpoint of a concentration-inhibition curve.

This experiment addresses PTPN6 (Homo sapiens, UniProt P29350). The experiment is described as follows: DiFMUP fluorescence phosphatase assay with recombinant enzyme purified from E. coli. Type of experiment: biochemical.

PTPN6, sequence (P29350 whole entry): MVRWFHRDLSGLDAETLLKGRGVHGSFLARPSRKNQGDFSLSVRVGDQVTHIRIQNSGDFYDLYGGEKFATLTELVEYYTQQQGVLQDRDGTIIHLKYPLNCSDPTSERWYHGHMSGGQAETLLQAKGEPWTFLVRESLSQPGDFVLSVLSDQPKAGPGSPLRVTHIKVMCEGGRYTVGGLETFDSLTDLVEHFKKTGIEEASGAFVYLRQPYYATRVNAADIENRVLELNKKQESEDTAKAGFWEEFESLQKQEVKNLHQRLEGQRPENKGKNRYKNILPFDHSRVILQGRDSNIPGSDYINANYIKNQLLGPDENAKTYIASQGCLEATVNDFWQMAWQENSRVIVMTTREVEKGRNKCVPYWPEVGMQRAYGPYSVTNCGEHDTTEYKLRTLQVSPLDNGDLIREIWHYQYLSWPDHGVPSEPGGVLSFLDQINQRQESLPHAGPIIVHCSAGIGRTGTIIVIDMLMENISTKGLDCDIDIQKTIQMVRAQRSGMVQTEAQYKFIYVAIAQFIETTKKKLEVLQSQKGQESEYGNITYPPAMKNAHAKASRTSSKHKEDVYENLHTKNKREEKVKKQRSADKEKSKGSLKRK

Take `O=c1c(O)c(-c2ccc(O)c(O)c2)oc2cc(O[C@@H]3O[C@H](CO)[C@@H](O)[C@H](O)[C@H]3O)c(O)c(O)c12` [QG, quercetagitrin]: the IC50 turned out to be 1000 nM.
